One data set concerns B16-F1 cells. In words: Melanogenesis inhibition (skin lightening) assay in cultured melanocyte cells, secreted melanin OD405. Type of data set: cell-based. Also noted: Melanogenesis Inhibition Activity: scale not given here. The conditions noted are these: for Melanogenesis Inhibition Activity: B16-F1 cells, 96 hours. On the procedure:
These were conducted using cultured melanocyte cells exposed to dilutions of the best materials, and compared with kojic acid, a brown skin lightener. The degree of melanin production was inversely proportional to the skin lightener activity. Any cytotoxic effect of the test materials is reflected in a decrease in melanin formation. Each 96 well assay plate included a solvent control and a blank control. […] When the cell cultures were 50 to 80% confluent, the growth medium was removed from the flasks and the cultures rinsed with 10 ml of HBSS. 2 ml of trypsin/EDTA solution was added and the flasks were incubated at 37° C.+/−1° C. for 2 to 5 minutes. When the cells started to dislodge, the flask was rapped sharply against the palm of the hand and approximately 5 ml of assay medium added to neutralise the trypsin. The concentration of cells was determined by counting an aliquot of the stock cell suspension in a haemocytometer. A seeding suspension of 5×10^4 cells/ml was prepared in assay medium. One hundred microlitres of the seeding cell suspension was added to the appropriate wells on each 96 well plate. One hundred microlitres of growth medium was added to the outer wells to maintain humidity. The cells were incubated at 37+/−1° C. in a humidified atmosphere containing 5+/−1% CO2 in air for 24 hours. Based on the information available for the test article, eight decreasing doses were selected and used in the assay. […] In the case of the mixture of protocatechuic acid and arbutin, a 1 to 1 w/w mixture of each was used in each assay with the concentration of each in the highest dose assay being 2.5 mg/ml, and then pro rata in the dilutions assayed in the other 7 assays. […] The test article and positive control was tested by treating six wells per dilution of B16-F1 cells seeded approximately 24 hours earlier. Prior to treatment the medium was removed, and 200 μl of the pre-warmed (37 +/−1° C.) test article dilutions, positive control dilutions and solvent control, were added to the appropriate wells. All test article concentrations were dosed into a single outer well (200 μl) of the corresponding plate to serve as a turbidity control. The remaining wells around the edge of the plate, designated as blanks, received 200 μl of assay medium prior to incubation. Following dosing, the plates were incubated at 37+/−1° C. for 96 hours +/−2 hours. After exposure, 150 μl of each treatment solution (containing any secreted melanin) was removed and transferred to the corresponding wells of a new 96 well plate (melanin production plate). Turbidity controls were also transferred. The absorbance of the melanin present in the melanin production plates was measured at 405 nm (OD405) with an Anthos 2010™microplate reader. The mean of the six OD405 values for each concentration of test article and positive control was calculated. The turbidity control values were subtracted to obtain a correct OD405 value. The mean of the six OD405 values for the corresponding negative or solvent control were calculated by subtracting the blank control value. The corrected OD405 values of the test article or positive control was divided by the corrected OD405 value for the negative or solvent control to obtain a melanin production ratio.

Data set [1] in a line: Taste, odour and colour of compounds of the invention. In kind it is physicochemical. The conditions noted are these: determined at effective concentrations.
Data set [2] is described as follows: Solubilities of compounds of the invention. In kind it is physicochemical.
Setting [3] is: ethylene glycol, organic solvent or mixture, read-out: Solubility Ethylene Clycol.
Setting [4] is: aqueous buffer, water, pH 7.0, read-out: Solubility Water (pH 7.0).
The mark [5] stands for this setting: ethanol, organic solvent or mixture, read-out: Solubility Ethanol.
Setting [6] is: oil, oil or lipid, read-out: Solubility Oil.

SMILES strings stand for the structures. In brackets after ≈: the same amount, converted by molar mass. Read-outs that look alike come from different tables or passages of the source.

On to `OC[C@H]1O[C@@H](Oc2ccc(O)cc2)[C@H](O)[C@@H](O)[C@@H]1O` [Arbutin, reference compound], for which the “Melanogenesis Inhibition Activity” value in the data set with B16-F1 cells (0.015 mg/ml) was 0; in the data set on B16-F1 cells (0.05 mg/ml), 1; with B16-F1 cells (0.15 mg/ml) it was 4; in the data set on B16-F1 cells (0.5 mg/ml) it was 11; in the data set with B16-F1 cells (1.5 mg/ml), 17; in the data set with B16-F1 cells (5 mg/ml), 14. Besides, in the data set with B16-F1 cells (15 mg/ml), the “Melanogenesis Inhibition Activity” value is 11.

`CCc1ccc(O)c(OC)c1` [Ethylguaiacol, 4-Ethyl-2-methoxyphenol]: the “Melanogenesis Inhibition Activity” value in the data set with B16-F1 cells (0.015 mg/ml) stood at 2; with B16-F1 cells (0.05 mg/ml) it was 8; in the data set with B16-F1 cells (0.15 mg/ml), 14; with B16-F1 cells (0.5 mg/ml) it was 17; with B16-F1 cells (1.5 mg/ml) it was 0; in the data set on B16-F1 cells (5 mg/ml), 0. In addition, the “Melanogenesis Inhibition Activity” value in the data set with B16-F1 cells (15 mg/ml) worked out at 0. Moreover, the Taste/Odour result in data set [1] was “Smoky”. Besides, in data set [1], the “Colour (Solution in Ethanol)” value was “Colourless”. In addition, the solubility in data set [2] (setting [3]) is 250 mg/mL (≈ 1640 mM).

As for `O=c1cc(CO)occ1O` [Kojic acid, reference compound], the “Melanogenesis Inhibition Activity” value is reported as 0 in the data set on B16-F1 cells (0.015 mg/ml); 0 in the data set with B16-F1 cells (0.05 mg/ml); 0 with B16-F1 cells (0.15 mg/ml); 2 in the data set on B16-F1 cells (0.5 mg/ml); 57 in the data set with B16-F1 cells (1.5 mg/ml); 170 with B16-F1 cells (5 mg/ml). Further, the “Melanogenesis Inhibition Activity” value in the data set with B16-F1 cells (15 mg/ml) is reported as 255.

`O=C(O)c1ccc(O)c(O)c1` [Protocatechuic acid, 3,4-Dihydroxybenzoic acid]: the “Melanogenesis Inhibition Activity” value is 0.5 in the data set on B16-F1 cells (0.015 mg/ml); 2 with B16-F1 cells (0.05 mg/ml); 1 in the data set with B16-F1 cells (0.15 mg/ml); 3 with B16-F1 cells (0.5 mg/ml); 7 in the data set with B16-F1 cells (1.5 mg/ml); 0 with B16-F1 cells (5 mg/ml). Further, the “Melanogenesis Inhibition Activity” value in the data set on B16-F1 cells (15 mg/ml) was 0. Further, the “skin lightening effect when used together with another skin lightening agent” value in the data set with B16-F1 cells (arbutin used together with protocatechuic acid) was “synergistic skin lightening effect”. The Taste/Odour entry in data set [1] was “None”. Moreover, the “Colour (Solution in Ethanol)” value in data set [1] is “Colourless”. Moreover, the solubility in data set [2] (setting [4]) was > 300 mg/mL; in data set [2] (setting [5]), > 500 mg/mL; in data set [2] (setting [3]), 250 mg/mL (≈ 1620 mM); in data set [2] (setting [6]) it was < 0.2 mg/mL.

In the case of `C=Cc1ccc(O)c(OC)c1` [Vinylguaiacol, 4-Vinyl-2-methoxyphenol], the “Melanogenesis Inhibition Activity” value is listed as 3 in the data set on B16-F1 cells (0.015 mg/ml); 6 in the data set on B16-F1 cells (0.05 mg/ml); 10 in the data set on B16-F1 cells (0.15 mg/ml); 1 in the data set with B16-F1 cells (0.5 mg/ml); 0 in the data set on B16-F1 cells (1.5 mg/ml); 0 with B16-F1 cells (5 mg/ml). For the same molecule, the “Melanogenesis Inhibition Activity” value with B16-F1 cells (15 mg/ml) was 0. Also, the Taste/Odour entry in data set [1] is “Cloves”. In addition, the “Colour (Solution in Ethanol)” value in data set [1] is recorded as “Colourless”. The solubility in data set [2] (setting [4]) is > 2 mg/mL; in data set [2] (setting [5]), > 100 mg/mL; in data set [2] (setting [6]) it was > 50 mg/mL.

Source of the values: patent publication US20030072726A1, “Skin lightening agents” (priority 1999, published 2003).
